Literature values, collected in patent US11382901B2, “Tropicamide-based ophthalmic formulations” (FOR HEALTH PHARMA S.R.L., priority 2017, dated 2022).

How the values were obtained:
[1] = system: RAW 264.7 cells (murine macrophage-like)
[2] = system: NIH/3T3 cells (murine fibroblasts)

tyloxapol
in vitro toxicity [1]: considerable in vitro toxicity | in vitro toxicity [2]: considerable in vitro toxicity
